# Assay results: paper PMC3038857, “Using Nuclear Receptor Activity to Stratify Hepatocarcinogens” (PLoS ONE, 2011)
# Read-outs that look alike come from different tables or passages of the source.
# Columns and labels:
# [1] = tested on: liver; conditions: cited from earlier work
# [2] = tested on: PXR; assay: Aggregate nuclear receptor activity: PXR; set-up: species or system human; conditions: aggregate human NR activity, in words
# Description: (§1) To summarize the activity of chemicals across the NR superfamily we aggregated the ToxCast assays for genes and NR groups as follows: retinoic X receptor-like (RXR; [drawing 5]; NR2B); peroxisome proliferator-activated receptor-like (PPAR; [drawing 6]; NR1C); constitutive androstane receptor ( [drawing 7]; [drawing 8]; [drawing 9] ); pregnane X receptor ( [drawing 10]; [drawing 11] ); liver X receptor-like (LXR; [drawing 12] , FXR; NR1H); and steroid receptor-like (SR; [drawing 13] , [drawing 14] , [drawing 15] ). These are shown visually in Figure 1(a). As there were differences in the number and types of assays for each group, aggregate activity was calculated as the average potency across the assays measured by the AC50 or LEC (described in Methods). This approach aggregated NR binding, activation, agonism or antagonism results into a single assessment of activity.
# (§2) All data used in this analysis are publicly available from the ToxCast website (www.epa.gov/toxcast). The analysis was conducted using the R statistical language (www.r-project.org). For each chemical [drawing 77] , and assay [drawing 78] combination we derived either the AC50 (50% maximal activity concentration) or LEC (Lowest Effective Concentration) in [drawing 79] M denoted as, [drawing 80] . All chemicals are provided in Dataset S3 and all assays are given in Dataset S1. The procedure for evaluating the quality of [drawing 81] are described in the supplementary methods (Text S1) and all assay results are provided in Dataset S2. In order to facilitate comparison across the assays the [drawing 82] were transformed by the formula, [drawing 83] where [drawing 84] represents a the potency on an ascending scale, and [drawing 85] is the maximum concentration (lowest potency) across the data set.
# (§3) The aggregate NR activity [drawing 86] , where [drawing 87] , was calculated using assays [drawing 88] . The aggregate scaled NR activity score for each chemical [drawing 89] was calculated as the average concentration value across the assays, scaled by the maximum value across all chemicals using Equation 1. [drawing 90] (1)
# [3] = tested on: CAR; assay: Aggregate nuclear receptor activity: CAR; conditions: aggregate human NR activity, in words
# Description: as §1, §2, §3
# [4] = tested on: AhR; assay: Aggregate nuclear receptor activity: AhR; conditions: aggregate human NR activity, in words
# Description: as §1, §2, §3
# [5] = target: T1, PPARG (peroxisome proliferator-activated receptor gamma) (Homo sapiens, UniProt P37231); assay: ATG_PPARg_TRANS: Factorial reporter gene assay (HepG2); type: cell-based; conditions: HepG2 reporter
# T1 construct: expressed in transfected cells; host or cells: HepG2
# T1 sequence (P37231 1-505): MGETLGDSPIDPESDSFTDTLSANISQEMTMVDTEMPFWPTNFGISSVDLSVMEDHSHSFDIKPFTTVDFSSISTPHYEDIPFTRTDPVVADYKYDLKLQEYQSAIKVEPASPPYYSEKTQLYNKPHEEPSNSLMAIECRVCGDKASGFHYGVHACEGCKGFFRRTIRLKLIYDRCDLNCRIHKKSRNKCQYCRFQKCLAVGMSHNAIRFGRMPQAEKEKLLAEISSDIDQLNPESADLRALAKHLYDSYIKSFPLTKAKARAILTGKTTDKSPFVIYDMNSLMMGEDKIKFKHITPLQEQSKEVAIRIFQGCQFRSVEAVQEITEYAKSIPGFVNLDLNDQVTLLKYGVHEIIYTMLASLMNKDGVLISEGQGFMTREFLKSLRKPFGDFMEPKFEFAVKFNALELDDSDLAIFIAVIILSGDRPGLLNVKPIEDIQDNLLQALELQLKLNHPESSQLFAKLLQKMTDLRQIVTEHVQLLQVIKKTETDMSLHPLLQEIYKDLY
# Summary of the method: (§4)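 Seven test concentrations were run, beginning at the MTC and diluted three-fold serially. PXRE activity came from cis reporters, a 48-site MRTU library in HepG2 hepatoma cells. ERRg, FXR and PPARg activity came from trans one-hybrid reporters, an additional 25-member MRTU set.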
# [6] = target: T2, ESR1 (estrogen receptor 1) (Homo sapiens, UniProt P03372); assay: ATG_ERa_TRANS: Factorial reporter gene assay (HepG2); type: cell-based; conditions: HepG2 reporter
# T2 construct: expressed in transfected cells; host or cells: HepG2
# Summary of the method: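 HepG2 cells transfected with multiplexed reporter libraries: cis-acting binding-site reporters (CIS) and a one-hybrid nuclear-receptor trans system (TRANS). Chemicals tested at seven concentrations, starting at the maximum tolerated concentration with three-fold serial dilutions.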
# [7] = target: T3, PXR (NR1I2) (Homo sapiens, UniProt O75469); assay: NVS_NR_hPXR: Human PXR Fluormone PXR (SXR) green (cell-free HTS); type: binding
# T3 sequence (O75469 1-434): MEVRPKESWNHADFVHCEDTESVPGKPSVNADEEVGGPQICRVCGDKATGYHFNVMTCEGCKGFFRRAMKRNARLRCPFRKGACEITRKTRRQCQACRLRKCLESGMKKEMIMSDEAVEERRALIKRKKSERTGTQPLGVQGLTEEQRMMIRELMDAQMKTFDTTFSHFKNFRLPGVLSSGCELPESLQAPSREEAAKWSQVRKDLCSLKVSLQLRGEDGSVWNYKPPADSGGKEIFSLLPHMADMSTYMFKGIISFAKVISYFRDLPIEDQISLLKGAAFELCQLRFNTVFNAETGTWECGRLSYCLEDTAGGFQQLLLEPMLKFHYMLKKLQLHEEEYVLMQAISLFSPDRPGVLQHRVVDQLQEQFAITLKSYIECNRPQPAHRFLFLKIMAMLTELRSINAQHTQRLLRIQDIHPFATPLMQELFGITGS
# Summary of the method: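 Responses were normalized to same-plate solvent controls as percent of neutral control. AC50 values came from Hill-equation fits of concentration-response curves.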
# [8] = target: T4, CAR (NR1I3) (Homo sapiens, UniProt Q14994); assay: ATG_CAR_TRANS: Factorial reporter gene assay (HepG2); type: cell-based; set-up: endogenous in cells; host or cells: HepG2; conditions: HepG2 reporter
# T4 sequence (Q14994 1-352): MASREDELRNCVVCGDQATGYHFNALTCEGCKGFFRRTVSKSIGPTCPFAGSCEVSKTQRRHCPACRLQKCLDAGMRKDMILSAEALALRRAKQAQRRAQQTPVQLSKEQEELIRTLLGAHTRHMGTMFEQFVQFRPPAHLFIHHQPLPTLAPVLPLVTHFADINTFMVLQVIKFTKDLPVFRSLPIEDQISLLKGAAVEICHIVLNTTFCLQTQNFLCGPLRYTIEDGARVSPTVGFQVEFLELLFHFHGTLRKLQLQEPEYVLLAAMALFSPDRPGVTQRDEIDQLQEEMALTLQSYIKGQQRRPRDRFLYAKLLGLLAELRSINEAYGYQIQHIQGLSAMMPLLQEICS
# Method: (§5) A multiple reporter transcription unit (MRTU) library consisting of 48 transcription factor binding sites was transfected into the HepG2 human liver hepatoma cell line. In addition to the cis-acting reporter genes (CIS), a modification of the approach was used to generate a trans-system (TRANS) with a mammalian one-hybrid assay consisting of an additional 25 MRTU library reporting the activity of nuclear receptor super-family members. […] These assays were performed by Attagene Inc. (Morrisville NC) under contract to EPA.
# (§6) In addition to the cis-acting reporter genes (CIS), a modification of the approach was used to generate a trans-system (TRANS) with a mammalian one-hybrid assay consisting of an additional 25 MRTU library reporting the activity of nuclear receptor super-family members. […] Chemicals were then tested in the CIS and TRANS assays at seven concentrations starting at the MTC and followed by three-fold serial dilutions. These assays were performed by Attagene Inc. (Morrisville NC) under contract to EPA. Detailed description of the methods, data and analysis methods for this dataset will be presented in a separate publication.
# [9] = tested on: Rat Liver; conditions: chronic study, rat liver; ref ToxRefDB; cited from earlier work
# [10] = target: T5, RXRB (retinoid X receptor, beta) (Homo sapiens, UniProt P28702); assay: ATG_RXRb_TRANS: Factorial reporter gene assay (HepG2); type: cell-based; conditions: HepG2 reporter
# T5 construct: expressed in transfected cells; host or cells: HepG2
# T5 sequence (P28702 1-533): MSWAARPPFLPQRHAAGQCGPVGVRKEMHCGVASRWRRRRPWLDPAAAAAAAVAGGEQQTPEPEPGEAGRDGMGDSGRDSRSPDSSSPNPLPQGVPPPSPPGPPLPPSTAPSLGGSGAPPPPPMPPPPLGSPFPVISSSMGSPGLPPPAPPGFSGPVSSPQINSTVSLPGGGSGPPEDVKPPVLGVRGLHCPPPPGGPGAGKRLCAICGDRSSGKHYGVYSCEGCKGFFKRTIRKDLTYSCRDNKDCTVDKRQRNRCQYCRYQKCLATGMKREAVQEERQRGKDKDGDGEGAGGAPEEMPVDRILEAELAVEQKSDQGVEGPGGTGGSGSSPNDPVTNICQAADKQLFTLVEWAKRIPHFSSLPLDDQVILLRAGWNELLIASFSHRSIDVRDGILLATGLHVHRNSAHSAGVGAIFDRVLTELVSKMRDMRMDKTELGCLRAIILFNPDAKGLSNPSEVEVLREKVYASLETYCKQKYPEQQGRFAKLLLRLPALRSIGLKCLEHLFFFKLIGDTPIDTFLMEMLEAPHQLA
# Method: as §5, §6
# [11] = target: T2, ESR1 (estrogen receptor 1); assay: ATG_ERE_CIS: Factorial reporter gene assay (HepG2); type: cell-based; conditions: HepG2 reporter
# Method: as §5, §6
# [12] = tested on: Rat Liver; conditions: chronic study, rat liver; ref ToxRefDB; cited from earlier work; remark: listed apart in the source
# [13] = tested on: Rat Liver; conditions: chronic study, rat liver; ref ToxRefDB; cited from earlier work; remark: listed apart in the source
# [14] = target: T3, PXR (NR1I2); assay: ATG_PXRE_CIS: Factorial reporter gene assay (HepG2); type: cell-based; set-up: endogenous in cells; host or cells: HepG2; conditions: HepG2 reporter
# Summary of the method: as §4
# [15] = 2-year chronic feeding studies in both rat and mouse, ToxRefDB ref 5
# T2 sequence (P03372 whole entry): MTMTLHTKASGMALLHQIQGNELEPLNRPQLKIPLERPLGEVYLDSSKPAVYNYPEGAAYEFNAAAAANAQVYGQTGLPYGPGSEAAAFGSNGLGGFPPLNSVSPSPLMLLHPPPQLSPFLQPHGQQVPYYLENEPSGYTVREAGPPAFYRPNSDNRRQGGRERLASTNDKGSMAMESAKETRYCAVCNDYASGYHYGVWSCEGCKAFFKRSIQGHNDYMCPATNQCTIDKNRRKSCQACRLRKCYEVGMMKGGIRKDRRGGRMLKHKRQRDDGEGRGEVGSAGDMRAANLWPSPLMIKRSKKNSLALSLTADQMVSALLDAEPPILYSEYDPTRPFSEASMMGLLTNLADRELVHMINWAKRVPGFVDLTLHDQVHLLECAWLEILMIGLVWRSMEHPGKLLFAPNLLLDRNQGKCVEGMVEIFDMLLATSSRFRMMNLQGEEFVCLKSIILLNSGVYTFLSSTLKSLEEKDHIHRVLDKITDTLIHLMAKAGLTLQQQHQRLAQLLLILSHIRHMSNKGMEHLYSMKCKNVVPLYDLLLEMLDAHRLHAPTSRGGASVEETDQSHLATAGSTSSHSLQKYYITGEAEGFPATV
structure (smiles),measurement,setting,value
"Cc1nn(C)c(Oc2ccccc2)c1/C=N/OCc1ccc(C(=O)OC(C)(C)C)cc1 [(Z,E)-Fenpyroximate, tert-butyl 4-[({[(1E)-(1,3-dimethyl-5-phenoxy-1H-pyrazol-4-yl)methylene]amino}oxy)methyl]benzoate]",liver injury (liver histopathology),[1]; [15],negative for any liver injury
"Cc1ccc(-c2c(Cl)nc(C#N)n2S(=O)(=O)N(C)C)cc1 [Cyazofamid, 4-chloro-2-cyano-N,N-dimethyl-5-(4-methylphenyl)-1H-imidazole-1-sulfonamide]",liver injury (liver histopathology),[1]; in vivo,negative for any liver injury
"C=C(C)CN(CC)c1c([N+](=O)[O-])cc(C(F)(F)F)cc1[N+](=O)[O-] [Ethalfluralin, N-ethyl-N-(2-methylprop-2-en-1-yl)-2,6-dinitro-4-(trifluoromethyl)aniline]",liver injury (liver histopathology),[1]; [15],negative for any liver injury
"CC1(C(=O)Nc2ccc(O)c(Cl)c2Cl)CCCCC1 [Fenhexamid, N-(2,3-dichloro-4-hydroxyphenyl)-1-methylcyclohexanecarboxamide]",liver injury (liver histopathology),[1]; in vivo,negative for any liver injury
"COP(=S)(OC)Oc1ccc(SC)c(C)c1 [Fenthion, O,O-dimethyl O-[3-methyl-4-(methylthio)phenyl] thiophosphate]",liver injury (liver histopathology),[1]; [15],negative for any liver injury
"CCOP(=S)(OCC)Oc1nc(Cl)n(C(C)C)n1 [Isazofos, O-(5-chloro-1-isopropyl-1H-1,2,4-triazol-3-yl) O,O-diethyl thiophosphate]",liver injury (liver histopathology),[1]; [15],negative for any liver injury
"CC1(C)C(C=C(Cl)Cl)C1C(=O)OCc1cccc(Oc2ccccc2)c1 (centres unmarked) [Permethrin, [3-(phenyloxy)phenyl]methyl 3-(2,2-dichloroethenyl)-2,2-dimethylcyclopropanecarboxylate]",activity with PXR,[2],active
same,activity with CAR,[3],most consistently active
same,activity with AhR,[4],active
"CCCN(CCOc1c(Cl)cc(Cl)cc1Cl)C(=O)n1ccnc1 [Prochloraz, N-propyl-N-[2-(2,4,6-trichlorophenoxy)ethyl]-1H-imidazole-1-carboxamide]",activity with PXR,[2],active
same,activity with CAR,[3],most consistently active
"CCNP(=S)(OC)O/C(C)=C/C(=O)OC(C)C (centres unmarked) [Propetamphos, isopropyl (2E)-3-{[(ethylamino)(methoxy)phosphorothioyl]oxy}but-2-enoate]",liver injury (liver histopathology),[1]; [15],negative for any liver injury
"C#CC(C)(C)NC(=O)c1cc(Cl)cc(Cl)c1 [Propyzamide, 3,5-dichloro-N-(1,1-dimethylprop-2-yn-1-yl)benzamide]",activity with PXR,[2],active
same,activity with CAR,[3],most consistently active
same,activity with AhR,[4],active
"CCOP(=S)(Oc1cnc(C(C)(C)C)nc1)OC(C)C (centres unmarked) [Tebupirimfos, O-(2-tert-butylpyrimidin-5-yl) O-ethyl O-isopropyl thiophosphate]",liver injury (liver histopathology),[1]; [15],negative for any liver injury
O=[N+]([O-])c1c(Cl)c(Cl)c(Cl)c(Cl)c1Cl [r278],ATG_PPARg_TRANS,[5],4.409
same,ATG_ERa_TRANS,[6],4.284
same,NVS_NR_hPXR,[7],4.314
same,ATG_CAR_TRANS,[8],4.377
same,CHR_Rat_Liver_2_PreneoplasticLesion,[9],6
same,ATG_RXRb_TRANS,[10],4.387
same,ATG_ERE_CIS,[11],4.854
same,CHR_Rat_Liver_3_NeoplasticLesion,[12],0
same,CHR_Rat_Liver_1_AnyLesion,[13],6
same,ATG_PXRE_CIS,[14],4.959
